Measurements from ChEMBL document CHEMBL1909046, “DrugMatrix in vitro pharmacology data”.

Legend:
Vasopressin V1a receptor = Vasopressin V1a receptor (Homo sapiens, UniProt P37288); format: cell membranes, Membrane; conditions: hek293; also: in other assays of this panel Not Active means under 50% inhibition at 10 µM
Androgen receptor = molecular target: T1, Androgen receptor (Rattus norvegicus, UniProt P15207); also: in other assays of this panel Not Active means under 50% inhibition at 10 µM
T1 sequence (P15207 whole entry): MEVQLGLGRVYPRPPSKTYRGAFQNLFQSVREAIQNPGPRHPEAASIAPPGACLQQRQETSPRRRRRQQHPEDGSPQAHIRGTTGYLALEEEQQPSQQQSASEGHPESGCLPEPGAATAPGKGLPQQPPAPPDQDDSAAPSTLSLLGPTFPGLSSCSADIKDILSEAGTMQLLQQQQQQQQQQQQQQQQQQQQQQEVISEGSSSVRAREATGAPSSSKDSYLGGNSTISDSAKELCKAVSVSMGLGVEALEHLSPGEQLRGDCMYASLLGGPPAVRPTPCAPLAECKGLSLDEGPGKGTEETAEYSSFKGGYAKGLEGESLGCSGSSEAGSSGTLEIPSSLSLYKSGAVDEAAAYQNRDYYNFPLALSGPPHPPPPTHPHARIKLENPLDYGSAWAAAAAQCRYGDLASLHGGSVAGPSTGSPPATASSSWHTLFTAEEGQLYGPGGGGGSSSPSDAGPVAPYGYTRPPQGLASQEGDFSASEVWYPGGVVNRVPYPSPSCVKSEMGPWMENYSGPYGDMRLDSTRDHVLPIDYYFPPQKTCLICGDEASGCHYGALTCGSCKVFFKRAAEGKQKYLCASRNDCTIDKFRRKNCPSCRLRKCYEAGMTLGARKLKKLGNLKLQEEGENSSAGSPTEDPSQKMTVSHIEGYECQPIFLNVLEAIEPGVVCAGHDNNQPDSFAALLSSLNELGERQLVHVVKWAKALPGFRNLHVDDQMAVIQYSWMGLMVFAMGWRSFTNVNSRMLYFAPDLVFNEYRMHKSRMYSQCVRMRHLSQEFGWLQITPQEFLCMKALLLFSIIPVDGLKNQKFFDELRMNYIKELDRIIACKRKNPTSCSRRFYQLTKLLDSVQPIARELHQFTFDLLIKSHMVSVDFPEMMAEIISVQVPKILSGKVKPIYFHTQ

[1] = molecular target: T2, Alpha-1A adrenergic receptor (Rattus norvegicus, UniProt P43140); assay: DRUGMATRIX: Alpha-1A adrenergic receptor radioligand binding (ligand: prazosin); format: cell membranes, Wistar, Submaxillary gland, Membrane; conditions: Not Active = under 50% inhibition at 10 µM
T2 sequence (P43140 whole entry): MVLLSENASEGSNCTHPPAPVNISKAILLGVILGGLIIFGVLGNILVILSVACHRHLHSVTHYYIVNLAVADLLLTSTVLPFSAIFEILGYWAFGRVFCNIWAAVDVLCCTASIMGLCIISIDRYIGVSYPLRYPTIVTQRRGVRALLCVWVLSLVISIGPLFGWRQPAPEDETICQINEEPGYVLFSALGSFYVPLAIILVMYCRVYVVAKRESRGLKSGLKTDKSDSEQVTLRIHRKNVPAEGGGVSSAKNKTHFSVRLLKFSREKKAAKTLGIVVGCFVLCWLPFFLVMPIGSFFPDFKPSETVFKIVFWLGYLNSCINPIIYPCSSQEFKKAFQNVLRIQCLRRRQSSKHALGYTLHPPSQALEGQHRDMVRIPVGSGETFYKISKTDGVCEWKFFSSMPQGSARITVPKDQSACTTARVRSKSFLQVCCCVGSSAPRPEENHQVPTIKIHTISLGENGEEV

[2] = molecular target: T3, Type-2 angiotensin II receptor (Homo sapiens, UniProt P50052); format: cell-based; conditions: cho-k1; also: in other assays of this panel Not Active means under 50% inhibition at 10 µM
T3 sequence (P50052 whole entry): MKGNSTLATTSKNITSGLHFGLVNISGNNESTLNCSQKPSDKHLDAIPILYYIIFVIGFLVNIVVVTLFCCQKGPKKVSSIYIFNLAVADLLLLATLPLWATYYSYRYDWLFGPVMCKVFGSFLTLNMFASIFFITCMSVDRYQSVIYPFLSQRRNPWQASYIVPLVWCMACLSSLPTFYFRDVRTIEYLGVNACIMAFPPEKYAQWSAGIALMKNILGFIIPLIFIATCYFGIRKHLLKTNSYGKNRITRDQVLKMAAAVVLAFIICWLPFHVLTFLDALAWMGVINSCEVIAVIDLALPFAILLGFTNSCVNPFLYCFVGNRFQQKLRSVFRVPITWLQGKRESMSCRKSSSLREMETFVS

[3] = DRUGMATRIX: Phosphodiesterase PDE3 enzyme inhibition (substrate: [3H]cAMP + cAMP); format: tissue-based, Homo sapiens; conditions: platelet; Not Active = under 50% inhibition at 10 µM
[4] = molecular target: T4, 5-hydroxytryptamine receptor 2C (Homo sapiens, UniProt P28335); assay: DRUGMATRIX: Serotonin (5-Hydroxytryptamine) 5-HT2C radioligand binding (ligand: [3H] Mesulergine); format: cell membranes, CHO-K1, Membrane; conditions: Not Active = under 50% inhibition at 10 µM; for Ki: read-out: Ki
T4 sequence (P28335 whole entry): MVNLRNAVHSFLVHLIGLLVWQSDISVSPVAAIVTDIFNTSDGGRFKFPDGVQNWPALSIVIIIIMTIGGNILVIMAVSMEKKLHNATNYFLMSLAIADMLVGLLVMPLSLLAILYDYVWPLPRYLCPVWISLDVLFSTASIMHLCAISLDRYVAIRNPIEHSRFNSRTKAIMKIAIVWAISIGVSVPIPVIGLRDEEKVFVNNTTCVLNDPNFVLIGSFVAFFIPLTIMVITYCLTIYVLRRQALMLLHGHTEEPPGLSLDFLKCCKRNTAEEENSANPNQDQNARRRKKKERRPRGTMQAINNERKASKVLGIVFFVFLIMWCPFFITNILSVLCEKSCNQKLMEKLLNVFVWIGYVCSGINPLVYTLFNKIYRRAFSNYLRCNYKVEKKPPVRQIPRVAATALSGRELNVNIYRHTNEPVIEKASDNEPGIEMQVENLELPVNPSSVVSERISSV

Vasopressin V1a receptor, sequence (P37288 whole entry): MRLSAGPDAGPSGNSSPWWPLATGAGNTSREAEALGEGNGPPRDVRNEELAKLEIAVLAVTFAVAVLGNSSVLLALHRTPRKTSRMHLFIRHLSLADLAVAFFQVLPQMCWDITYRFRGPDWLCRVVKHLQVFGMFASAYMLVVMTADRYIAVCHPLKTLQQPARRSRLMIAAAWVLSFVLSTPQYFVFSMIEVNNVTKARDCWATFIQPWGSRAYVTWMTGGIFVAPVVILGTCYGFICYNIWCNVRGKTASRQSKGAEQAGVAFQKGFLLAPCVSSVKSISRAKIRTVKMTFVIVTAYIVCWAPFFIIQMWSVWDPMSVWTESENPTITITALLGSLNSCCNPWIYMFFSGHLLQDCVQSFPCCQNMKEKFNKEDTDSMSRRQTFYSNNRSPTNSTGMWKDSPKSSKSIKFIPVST

Row | SMILES | IC50 (Vasopressin V1a receptor) | IC50 (Androgen receptor) | IC50 [1] | IC50 [2] | IC50 [3] | Ki [3] | IC50 ([4]; read-out: IC50) [nM] | Ki [4] [nM] | IC50 ([4]; cho-k1) | IC50 ([1]; read-out: IC50) [nM] | Ki ([1]; read-out: Ki) [nM]
1 | Cc1c(C)c2c(c(C)c1O)CCC(C)(CN1CCN(c3cc(N4CCCC4)nc(N4CCCC4)n3)CC1)O2 (stereo not drawn) | Not Active | Not Active | Not Active | Not Active | Not Active | Not Active | 7560 | 3960 | – | – | –
2 | COc1ccc(CCN(C)CCCC(C#N)(c2ccc(OC)c(OC)c2)C(C)C)cc1OC (stereo not drawn) | Not Active | – | – | Not Active | Not Active | Not Active | – | – | – | – | –
3 | CC(C)Cc1ccc([C@@H](C)C(=O)O)cc1 [(R)-IBUPROPHEN] | Not Active | – | Not Active | Not Active | Not Active | Not Active | – | – | Not Active | – | –
4 | CN(C)CCOC(c1ccccc1)c1ccccc1 [DIPHENHYDRAMINE] | Not Active | Not Active | Not Active | Not Active | – | – | – | – | – | – | –
5 | Fc1ccc(C(c2ccc(F)cc2)N2CCN(C/C=C/c3ccccc3)CC2)cc1 [FLUNARIZINE] | Not Active | – | – | Not Active | – | – | 669 | 351 | – | 1090 | 440
6 | CNCCC(Oc1ccc(C(F)(F)F)cc1)c1ccccc1 (stereo not drawn) [FLUOXETINE] | Not Active | – | Not Active | Not Active | – | – | – | – | – | – | –
7 | Cc1ccc(NC(=O)c2ccc(CN3CCN(C)CC3)cc2)cc1Nc1nccc(-c2cccnc2)n1 [IMATINIB] | Not Active | Not Active | Not Active | Not Active | – | – | – | – | Not Active | – | –
8 | CC(C)Oc1ccc2c(=O)c(-c3ccccc3)coc2c1 [IPRIFLAVONE] | Not Active | – | Not Active | Not Active | Not Active | Not Active | – | – | Not Active | – | –
9 | CC(C)NCC(O)c1ccc(O)c(O)c1 (stereo not drawn) [ISOPROTERENOL] | Not Active | – | Not Active | Not Active | Not Active | Not Active | – | – | Not Active | – | –
10 | CNC1(c2ccccc2Cl)CCCCC1=O (stereo not drawn) [KETAMINE] | Not Active | – | Not Active | Not Active | Not Active | Not Active | – | – | Not Active | – | –
11 | C[C@H]1C[C@@H]2[C@H]([C@@H](O)C[C@@]3(C)[C@H]2CC[C@]3(O)C(=O)CO)[C@@]2(C)C=CC(=O)C=C12 [METHYLPREDNISOLONE] | Not Active | – | Not Active | Not Active | Not Active | Not Active | – | – | Not Active | – | –
12 | Cc1cccc(C)c1OCC(C)N (stereo not drawn) [MEXILETINE] | Not Active | – | Not Active | Not Active | Not Active | Not Active | – | – | Not Active | – | –
13 | CO[C@H]1/C=C/O[C@@]2(C)Oc3c(C)c(O)c4c(O)c(c(/C=N/N5CCN(C6CCCC6)CC5)c(O)c4c3C2=O)NC(=O)/C(C)=C\C=C\[C@H](C)[C@H](O)[C@@H](C)[C@@H](O)[C@@H](C)[C@H](OC(C)=O)[C@@H]1C [RIFAPENTINE] | Not Active | – | Not Active | Not Active | Not Active | Not Active | – | – | Not Active | – | –
14 | CC[C@@H](C(=O)[C@@H](C)[C@@H](O)[C@H](C)[C@@H]1O[C@@H]([C@@H](CC)C(=O)O)CC[C@@H]1C)[C@H]1O[C@]2(C=C[C@@H](O)[C@]3(CC[C@@](C)([C@H]4CC[C@](O)(CC)[C@H](C)O4)O3)O2)[C@H](C)C[C@@H]1C [SALINOMYCIN] | Not Active | – | Not Active | Not Active | Not Active | Not Active | – | – | Not Active | – | –
15 | O=C(Oc1ccccc1C(=O)O)c1ccccc1O [SALSALATE] | Not Active | – | Not Active | Not Active | Not Active | Not Active | – | – | Not Active | – | –
16 | O=C(O)c1cn(-c2ccc(F)cc2)c2cc(N3CCNCC3)c(F)cc2c1=O [SARAFLOXACIN] | Not Active | – | Not Active | Not Active | Not Active | Not Active | – | – | Not Active | – | –
17 | CN[C@H]1CC[C@@H](c2ccc(Cl)c(Cl)c2)c2ccccc21 [SERTRALINE] | Not Active | – | Not Active | Not Active | – | – | 1080 | – | – | – | –
18 | CC(C)NCC(O)c1ccc(NS(C)(=O)=O)cc1 (stereo not drawn) [SOTALOL] | Not Active | – | Not Active | Not Active | Not Active | Not Active | – | – | Not Active | – | –
19 | O.O.O.O.O.O.[Cl-].[Cl-].[Sr+2] [STRONTIUM CHLORIDE HEXAHYDRATE] | Not Active | – | Not Active | Not Active | Not Active | Not Active | – | – | Not Active | – | –
20 | O=C1C(CC[S+]([O-])c2ccccc2)C(=O)N(c2ccccc2)N1c1ccccc1 (stereo not drawn) [SULFINPYRAZONE] | Not Active | – | Not Active | Not Active | Not Active | Not Active | – | – | Not Active | – | –
21 | COc1cc2nc(N3CCN(C(=O)C4CCCO4)CC3)nc(N)c2cc1OC (stereo not drawn) [TERAZOSIN] | Not Active | – | – | Not Active | Not Active | Not Active | – | – | Not Active | – | –
22 | CCCCNc1ccc(C(=O)OCCN(C)C)cc1 [TETRACAINE] | Not Active | – | Not Active | Not Active | Not Active | Not Active | 3270 | 1710 | – | – | –
23 | Cn1c(=O)c2nc[nH]c2n(C)c1=O.O [THEOPHYLLINE] | Not Active | – | Not Active | Not Active | Not Active | Not Active | – | – | Not Active | – | –
24 | CS(=O)(=O)c1ccc([C@@H](O)[C@@H](CO)NC(=O)C(Cl)Cl)cc1 [THIAMPHENICOL] | Not Active | – | Not Active | Not Active | Not Active | Not Active | – | – | Not Active | – | –
25 | CCN(CC)CCNC(=O)c1cc(S(C)(=O)=O)ccc1OC [TIAPRIDE] | Not Active | – | Not Active | Not Active | Not Active | Not Active | – | – | Not Active | – | –
26 | O=C(Nc1ccc(Br)cc1)c1cc(Br)cc(Br)c1O [TRIBROMSALAN] | Not Active | – | Not Active | Not Active | Not Active | Not Active | – | – | Not Active | – | –
